Like-named read-outs stand apart in the source and are kept apart here.
Tested on: Staphylococcus aureus NCTC 10649
Experiment: In Vivo Antibacterial Activity, protection of CF-1 female mice from bacterial challenge
Design: species or system CF-1 female mice infected with Staphylococcus aureus
Settings: 100 times the LD50 i.p., dosed at 1 and 5 hr after infection, mortality on sixth day
Experimental: The in vivo antibacterial activity of one of the compounds of the present invention was determined by studying the protection of CF-1 female mice from bacterial challenge. The test compound was 7-(2-dimethylaminomethyl-1,4-dioxa-7-azaspiro[4.4]non-7-yl)-6-fluoro-1-(2,4-difluorophenyl)-1,8-naphthyridine-3-carboxylic acid (prepared in Example 445). Aqueous solutions of the compound were made by dissolving it in dilute NaOH and diluting with distilled water to the desired volume.
The median lethal dose of the test organism was then determined as follows: After 18 hours incubation, a culture of Staphylococcus aureus NCTC 10649 was serially diluted by using 10-fold dilutions in 5% (w/v) hog gastric mucin. 0.5 mL samples, of dilution from 10^-1 to 10^-8, were injected intraperitoneally into mice. The LD50 for the test organism was calculated from the cumulative mortalities on the sixth day by the using the Reed and Muench procedure (Reed, L. J., and H. Muench, Amer. J. Hygiene, 27, 493 (1938)).
The 18 hour culture of the test organism was then diluted in 5% (w/v) hog gastric mucin to obtain 100 times the LD50, and 0.5 mL was injected intraperitoneally into mice. The mice were treated subcutaneously or orally with a specific amount of the test compound divided equally to be administered at 1 and 5 hr after infection. […]

SMILES: CN(C)CC1COC2(CCN(c3nc4c(cc3F)c(=O)c(C(=O)O)cn4-c3ccc(F)cc3F)C2)O1 (centres unmarked) [Example 445]
- ED50 (NCTC10649, 144 h, oral, read-out: oral ED50): 6 mg/kg
- ED50 (NCTC10649, sc, 144 h, subcutaneous, read-out: subcutaneous ED50): 5 mg/kg
